Columns and labels:
Rattus norvegicus [1] = experiment: Effect on behavioural activity in rat assessed as cocaine-induced lever response at 5 mg/kg, ip pretreated with cocaine for 30 mins by drug-discrimination studies; assay type: functional; details: route intraperitoneal
Mus musculus [2] = experiment: Antidepressant activity in ip dosed mouse assessed as duration of locomotor activity; assay type: functional
Mus musculus [3] = experiment: Antidepressant activity in ip dosed mouse assessed as stimulation of locomotor activity relative to cocaine; assay type: functional
Rattus norvegicus [4] = experiment: Effect on behavioural activity in rat assessed as cocaine-induced lever response at 25 mg/kg, po pretreated with cocaine for 360 mins by drug-discrimination studies; assay type: functional
Rattus norvegicus [5] = experiment: Effect on behavioural activity in rat assessed as cocaine-induced lever response at 2.5 mg/kg, po pretreated with cocaine for 180 mins by drug-discrimination studies; assay type: functional
Rattus norvegicus [6] = experiment: Effect on behavioural activity in rat assessed as cocaine-induced lever response at 2.5 mg/kg, ip pretreated with cocaine for 30 mins by drug-discrimination studies; assay type: functional; details: route intraperitoneal
Rattus norvegicus [7] = experiment: Effect on behavioural activity in rat assessed as cocaine-induced lever response at 5 mg/kg, po pretreated with cocaine for 360 mins by drug-discrimination studies; assay type: functional
Rattus norvegicus [8] = experiment: Effect on behavioural activity in rat assessed as cocaine-induced lever response at 10 mg/kg, ip pretreated with cocaine for 30 mins by drug-discrimination studies; assay type: functional; details: route intraperitoneal
Rattus norvegicus [9] = experiment: Effect on behavioural activity in rat assessed as cocaine-induced lever response at 5 mg/kg, po pretreated with cocaine for 45 mins by drug-discrimination studies; assay type: functional
Rattus norvegicus [10] = experiment: Effect on behavioural activity in rat assessed as cocaine-induced lever response at 5 mg/kg, po pretreated with cocaine for 180 mins by drug-discrimination studies; assay type: functional
Rattus norvegicus [11] = experiment: Effect on behavioural activity in rat assessed as cocaine-induced lever response at 5 mg/kg, po pretreated with cocaine for 90 mins by drug-discrimination studies; assay type: functional
Rattus norvegicus [12] = experiment: Effect on behavioural activity in rat assessed as cocaine-induced lever response at 10 mg/kg, po pretreated with cocaine for 180 mins by drug-discrimination studies; assay type: functional
Mus musculus [13] = experiment: Antidepressant activity in ip dosed mouse assessed as stimulation of locomotor activity; assay type: functional
Rattus norvegicus [14] = experiment: Effect on behavioural activity in rat assessed as cocaine-induced lever response at 1 mg/kg, ip pretreated with cocaine for 30 mins by drug-discrimination studies; assay type: functional; details: route intraperitoneal
Rattus norvegicus [15] = experiment: Effect on behavioural activity in rat assessed as cocaine-induced lever response at 25 mg/kg, po pretreated with cocaine for 45 mins by drug-discrimination studies; assay type: functional
Mus musculus [16] = experiment: Antidepressant activity in ip dosed mouse assessed as time to reach peak stimulation of locomotor activity; assay type: functional
Rattus norvegicus [17] = experiment: Effect on behavioural activity in ip dosed rat assessed as cocaine-induced lever response pretreated with cocaine by drug-discrimination studies; assay type: functional
Rattus norvegicus [18] = experiment: Effect on behavioural activity in rat assessed as cocaine-induced lever response at 25 mg/kg, po pretreated with cocaine for 90 mins by drug-discrimination studies; assay type: functional
Rattus norvegicus [19] = experiment: Effect on behavioural activity in rat assessed as cocaine-induced lever response at 2.5 mg/kg, po pretreated with cocaine for 360 mins by drug-discrimination studies; assay type: functional
Rattus norvegicus [20] = experiment: Effect on behavioural activity in rat assessed as cocaine-induced lever response at 2.5 mg/kg, po pretreated with cocaine for 45 mins by drug-discrimination studies; assay type: functional
Rattus norvegicus [21] = experiment: Effect on behavioural activity in po dosed rat assessed as cocaine-induced lever response pretreated with cocaine by drug-discrimination studies; assay type: functional
Rattus norvegicus [22] = experiment: Effect on behavioural activity in rat assessed as cocaine-induced lever response at 10 mg/kg, po pretreated with cocaine for 90 mins by drug-discrimination studies; assay type: functional
Rattus norvegicus [23] = experiment: Effect on behavioural activity in rat assessed as cocaine-induced lever response at 25 mg/kg, po pretreated with cocaine for 180 mins by drug-discrimination studies; assay type: functional
Rattus norvegicus [24] = experiment: Effect on behavioural activity in rat assessed as cocaine-induced lever response at 2.5 mg/kg, po pretreated with cocaine for 90 mins by drug-discrimination studies; assay type: functional
Rattus norvegicus [25] = experiment: Effect on behavioural activity in rat assessed as cocaine-induced lever response at 10 mg/kg, po pretreated with cocaine for 360 mins by drug-discrimination studies; assay type: functional
Rattus norvegicus [26] = experiment: Effect on behavioural activity in rat assessed as cocaine-induced lever response at 10 mg/kg, po pretreated with cocaine for 45 mins by drug-discrimination studies; assay type: functional
Rattus norvegicus [27] = experiment: Effect on behavioural activity in rat assessed as cocaine-induced lever response at 25 mg/kg, ip pretreated with cocaine for 30 mins by drug-discrimination studies; assay type: functional; details: route intraperitoneal
Rattus norvegicus [28] = experiment: Effect on behavioural activity in rat assessed as cocaine-induced lever response at 50 mg/kg, po pretreated with cocaine for 45 mins by drug-discrimination studies; assay type: functional
Rattus norvegicus [29] = experiment: Effect on behavioural activity in rat assessed as cocaine-induced lever response at 50 mg/kg, po pretreated with cocaine for 90 mins by drug-discrimination studies; assay type: functional
Rattus norvegicus [30] = experiment: Effect on behavioural activity in rat assessed as cocaine-induced lever response at 50 mg/kg, po pretreated with cocaine for 360 mins by drug-discrimination studies; assay type: functional
Rattus norvegicus [31] = experiment: Effect on behavioural activity in rat assessed as cocaine-induced lever response at 50 mg/kg, po pretreated with cocaine for 180 mins by drug-discrimination studies; assay type: functional
[32] = target: Sodium-dependent serotonin transporter (Homo sapiens, UniProt P31645); experiment: biochemical; assay type: cell-based, HEK293
Rattus norvegicus [33] = experiment: Effect on behavioural activity in rat assessed as cocaine-induced lever response at 50 mg/kg, ip pretreated with cocaine for 15 mins by drug-discrimination studies; assay type: functional; details: route intraperitoneal
Rattus norvegicus [34] = experiment: Effect on behavioural activity in rat assessed as cocaine-induced lever response at 5 mg/kg, ip pretreated with cocaine for 15 mins by drug-discrimination studies; assay type: functional; details: route intraperitoneal
Rattus norvegicus [35] = experiment: Effect on behavioural activity in rat assessed as cocaine-induced lever response at 2.5 mg/kg, ip pretreated with cocaine for 15 mins by drug-discrimination studies; assay type: functional; details: route intraperitoneal
Rattus norvegicus [36] = experiment: Effect on behavioural activity in rat assessed as cocaine-induced lever response at 10 mg/kg, ip pretreated with cocaine for 15 mins by drug-discrimination studies; assay type: functional; details: route intraperitoneal
Rattus norvegicus [37] = experiment: Effect on behavioural activity in rat assessed as cocaine-induced lever response at 25 mg/kg, ip pretreated with cocaine for 15 mins by drug-discrimination studies; assay type: functional; details: route intraperitoneal
Rattus norvegicus [38] = experiment: Effect on behavioural activity in rat assessed as cocaine-induced lever response at 1 mg/kg, ip pretreated with cocaine for 15 mins by drug-discrimination studies; assay type: functional; details: route intraperitoneal

Sodium-dependent serotonin transporter, sequence (P31645 whole entry): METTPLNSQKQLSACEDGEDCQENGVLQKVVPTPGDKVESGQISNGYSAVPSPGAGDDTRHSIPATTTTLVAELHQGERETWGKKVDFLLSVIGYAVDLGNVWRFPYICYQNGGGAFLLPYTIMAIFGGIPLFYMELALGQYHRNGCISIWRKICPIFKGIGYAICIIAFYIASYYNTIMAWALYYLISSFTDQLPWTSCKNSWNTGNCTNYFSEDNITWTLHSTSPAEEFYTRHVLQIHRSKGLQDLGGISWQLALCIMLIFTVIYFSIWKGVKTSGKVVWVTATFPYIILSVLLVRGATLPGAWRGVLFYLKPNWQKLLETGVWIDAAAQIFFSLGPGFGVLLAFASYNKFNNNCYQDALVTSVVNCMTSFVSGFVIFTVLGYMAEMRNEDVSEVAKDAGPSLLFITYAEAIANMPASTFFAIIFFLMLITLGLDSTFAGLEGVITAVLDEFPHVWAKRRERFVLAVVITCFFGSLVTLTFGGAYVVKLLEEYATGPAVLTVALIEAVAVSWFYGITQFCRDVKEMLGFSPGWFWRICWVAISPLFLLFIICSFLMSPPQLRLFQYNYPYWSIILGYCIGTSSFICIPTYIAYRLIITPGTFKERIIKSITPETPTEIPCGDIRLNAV

SMILES | Activity (Rattus norvegicus [1]) [%] | Time (Mus musculus [2]) [min] | Activity (Mus musculus [3]) [%] | Activity (Rattus norvegicus [4]) [%] | Activity (Rattus norvegicus [6]) [%] | Activity (Rattus norvegicus [7]) [%] | Activity (Rattus norvegicus [9]) [%] | Activity (Rattus norvegicus [10]) [%] | Activity (Rattus norvegicus [11]) [%] | Activity (Rattus norvegicus [12]) [%] | ED50 (Mus musculus [13]) [mg/kg] | Activity (Rattus norvegicus [14]) [%] | Activity (Rattus norvegicus [15]) [%] | Time to peak locomotor stimulation (Mus musculus [16]) [min] | ED50 (Rattus norvegicus [17]) [mg/kg] | Activity (Rattus norvegicus [18]) [%] | Activity (Rattus norvegicus [20]) [%] | ED50 (Rattus norvegicus [21]) [mg/kg] | Activity (Rattus norvegicus [22]) [%] | Activity (Rattus norvegicus [26]) [%] | other results
CCCC(NC(C)(C)C)C(=O)c1ccc(Cl)c(Cl)c1 (stereo not drawn) | 33.3 | 470 | 93 | 0 | 41.8 | 0 | 0 | 0 | 13 | 5 | 38 | 0 | 58 | 0 | 3.9 | 84 | 17 | 22.8 | 0 | 33 | Activity (Rattus norvegicus [5]): 0%; Activity (Rattus norvegicus [8]): 33.3%; Activity (Rattus norvegicus [19]): 0%; Activity (Rattus norvegicus [23]): 17%; Activity (Rattus norvegicus [24]): 0%; Activity (Rattus norvegicus [25]): 0%; Activity (Rattus norvegicus [27]): 100%
CCC(NC(C)(C)C)C(=O)c1ccc(Cl)c(Cl)c1 (stereo not drawn) | 16.7 | 60 | 69 | 33 | 33.3 | 0 | 17 | 0 | – | 0 | 38 | 0 | 50 | 0 | 6.3 | 33 | 33 | 15.2 | 0 | 34 | Activity (Rattus norvegicus [5]): 50%; Activity (Rattus norvegicus [28]): 83%; Activity (Rattus norvegicus [29]): 67%; Activity (Rattus norvegicus [19]): 17%; Activity (Rattus norvegicus [23]): 2%; Activity (Rattus norvegicus [24]): 17%; Activity (Rattus norvegicus [25]): 2%; Activity (Rattus norvegicus [27]): 100%; Activity (Rattus norvegicus [30]): 16%; Activity (Rattus norvegicus [31]): 50%
CC(NC1CCCC1)C(=O)c1cccc(Cl)c1 (stereo not drawn) | 0 | 330 | 107 | 34 | 23.9 | 0 | 50 | 0 | 0 | 0 | 12.3 | 0.9 | 67 | 0 | 10.9 | 67 | 17 | 6.6 | 33 | 60 | Activity (Rattus norvegicus [8]): 66.2%; Activity (Rattus norvegicus [28]): 100%; Ki [32]: > 10 µM; Activity (Rattus norvegicus [27]): 83.4%; Activity (Rattus norvegicus [30]): 16%; Activity (Rattus norvegicus [31]): 33%
CC(NC(C)(C)C)C(=O)c1cccc(Cl)c1 (stereo not drawn) [BUPROPION] | – | 130 | 87 | 1 | – | – | 33 | 2.5 | 0 | 0 | 5.5 | – | 50 | 0 | – | 0 | – | 22.8 | 1 | 17 | Activity (Rattus norvegicus [33]): 66.7%; Activity (Rattus norvegicus [34]): 0%; Activity (Rattus norvegicus [35]): 0.7%; Activity (Rattus norvegicus [28]): 83%; Activity (Rattus norvegicus [36]): 67.1%; Activity (Rattus norvegicus [29]): 50%; Activity (Rattus norvegicus [37]): 66.3%; Activity (Rattus norvegicus [38]): 24.1%; Activity (Rattus norvegicus [23]): 22%; Activity (Rattus norvegicus [25]): 0%; Activity (Rattus norvegicus [30]): 0%; Activity (Rattus norvegicus [31]): 17%

— ChEMBL document CHEMBL1156106 (J Med Chem, 2009)
